In patent US11584747B2, “Substituted pyridopyrimidinonyl compounds useful as T cell activators” (BRISTOL-MYERS SQUIBB COMPANY, priority 2019, dated 2023):
Where two headings read alike, the source gives them in different places.

Legend:
human DGKα [1] = biological target: T1, human DGKα (Homo sapiens (Human), UniProt P23743); assay: DGKα ADPGLO assay (detergent/lipid micelle substrate); format: biochemical; conditions: truncated DGK alpha; read-out: DGK alpha ADPGLO (Truncated) IC50
Description: DGK Alpha ADPGLO (Truncated) IC50 (uM)
The detergent/lipid micelle was prepared by combining 15 g phosphatidylserine (Avanti 840035P) and 1 g diacylglycerol (8008110) and dissolving into 150 mL chloroform in a 2 L round bottom flask. Chloroform was removed under high vacuum by rotary evaporation. […] The lipid/detergent solution was split into 5 mL aliquots and stored at −80° C.

whole blood (pERK) = assay: pERK Whole Blood assay (Table A; no whole-blood pERK method described); format: cell-based; conditions: normalized
human DGKζ = human DGKζ (Homo sapiens (Human), UniProt Q13574); assay: DGKζ LIPGLO assay (extruded liposome substrate, ADP-Glo luminescence); format: biochemical; conditions: liposome assay; read-out: DGK zeta LIPGLO IC50
human DGKα [2] = biological target: T1, human DGKα; assay: DGKα LIPGLO assay (extruded liposome substrate, ADP-Glo luminescence); format: biochemical; conditions: liposome assay; read-out: DGK alpha LIPGLO IC50
[3] = test system: human venous whole blood (IFN-γ); assay: Human whole blood IFN-γ assay; format: cell-based; conditions: whole blood, normalized to 3 μM reference compound as 100% activation, read-out: IFN-γ Whole Blood Normalized EC50
Description: Human venous whole blood (22.5 μL per well), obtained from healthy donors, was pre-treated with compounds for one hour at 37° C. in a humidified 95% air/5% CO2 incubator. The blood was stimulated with 2.5 μL anti-human CD3 and anti-CD28 mAb at a final concentration of 1 μg/mL each for 24 hours at 37° C. IFN-γ in the supernatants was measured using AlphLISA kit (Cat #AL217).

Sequence of human DGKζ (Q13574 other isoform, or with tags, fused parts or gaps): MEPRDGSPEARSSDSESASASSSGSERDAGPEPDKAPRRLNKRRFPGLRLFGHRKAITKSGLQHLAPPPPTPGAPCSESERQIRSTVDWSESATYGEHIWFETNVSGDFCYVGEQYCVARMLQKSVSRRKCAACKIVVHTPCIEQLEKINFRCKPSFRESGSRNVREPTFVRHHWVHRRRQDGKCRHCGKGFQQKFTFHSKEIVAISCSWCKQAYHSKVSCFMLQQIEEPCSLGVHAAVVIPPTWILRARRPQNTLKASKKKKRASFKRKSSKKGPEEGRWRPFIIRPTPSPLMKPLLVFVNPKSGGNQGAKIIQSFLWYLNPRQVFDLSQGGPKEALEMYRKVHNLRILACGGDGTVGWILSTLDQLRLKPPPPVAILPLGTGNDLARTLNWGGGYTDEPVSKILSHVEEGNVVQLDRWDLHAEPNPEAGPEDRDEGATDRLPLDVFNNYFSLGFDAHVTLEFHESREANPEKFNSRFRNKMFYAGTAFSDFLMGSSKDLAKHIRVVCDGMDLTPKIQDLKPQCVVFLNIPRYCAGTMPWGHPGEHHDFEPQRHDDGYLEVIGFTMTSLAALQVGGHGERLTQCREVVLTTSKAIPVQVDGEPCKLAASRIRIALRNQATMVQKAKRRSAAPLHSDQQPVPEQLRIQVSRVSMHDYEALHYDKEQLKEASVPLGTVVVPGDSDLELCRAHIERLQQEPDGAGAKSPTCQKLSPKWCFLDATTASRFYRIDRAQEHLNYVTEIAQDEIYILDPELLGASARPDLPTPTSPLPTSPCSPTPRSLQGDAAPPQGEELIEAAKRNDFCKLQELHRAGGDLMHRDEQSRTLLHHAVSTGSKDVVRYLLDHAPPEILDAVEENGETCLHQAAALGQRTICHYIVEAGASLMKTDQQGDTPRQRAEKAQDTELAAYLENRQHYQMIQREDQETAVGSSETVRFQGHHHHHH
T1 sequence (P23743 whole entry, looked up, the tested form may be a part): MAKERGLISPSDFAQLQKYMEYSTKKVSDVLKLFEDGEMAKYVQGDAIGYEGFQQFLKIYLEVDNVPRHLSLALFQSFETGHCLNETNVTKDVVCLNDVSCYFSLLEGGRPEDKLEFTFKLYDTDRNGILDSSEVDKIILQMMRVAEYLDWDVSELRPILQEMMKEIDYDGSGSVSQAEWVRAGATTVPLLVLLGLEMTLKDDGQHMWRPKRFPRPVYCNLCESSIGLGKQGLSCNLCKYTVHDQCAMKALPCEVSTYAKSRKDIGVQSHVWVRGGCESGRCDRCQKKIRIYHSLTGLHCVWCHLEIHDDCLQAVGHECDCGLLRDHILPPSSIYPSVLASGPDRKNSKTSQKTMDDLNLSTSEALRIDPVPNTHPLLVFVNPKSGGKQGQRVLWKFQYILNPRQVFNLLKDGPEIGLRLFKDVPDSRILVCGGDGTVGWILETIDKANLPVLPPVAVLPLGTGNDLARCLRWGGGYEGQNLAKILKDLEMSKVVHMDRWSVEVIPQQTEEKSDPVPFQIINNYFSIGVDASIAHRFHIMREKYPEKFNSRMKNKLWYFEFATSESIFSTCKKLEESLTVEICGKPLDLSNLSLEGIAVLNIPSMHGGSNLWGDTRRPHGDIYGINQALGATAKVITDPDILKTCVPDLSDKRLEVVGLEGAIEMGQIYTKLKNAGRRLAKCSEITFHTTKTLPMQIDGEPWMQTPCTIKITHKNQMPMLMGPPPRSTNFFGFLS

| Compound | IC50 (human DGKα [1]) | IC50 (human DGKζ) | IC50 (human DGKα [2]) | IC50 (whole blood (pERK)) | EC50 ([3]; Homo sapiens) | EC50 [3] |
| --- | --- | --- | --- | --- | --- | --- |
| CC[C@@H]1CN(c2nc(=O)n(C)c3ccc(C#N)nc23)[C@@H](C)CN1C(c1ccc(OC(F)(F)F)cc1)c1ccccn1 (single isomer, unassigned) [Example 94] | 16 nM | 86 nM | 200 nM | 220 nM | – | 43 nM |
| CC[C@H]1CN(C(c2ccc(OC(F)(F)F)cc2)c2cc(C3CC3)on2)[C@H](CC)CN1c1nc(=O)n(C)c2ccc(C#N)nc12 (single isomer, unassigned) [Example 43] | 82 nM | 130 nM | 22 nM | 340 nM | – | 120 nM |
| CC[C@H]1CN(C(C)c2ccc(C(F)(F)F)cc2)[C@H](CC)CN1c1nc(=O)n(C)c2ccc(C#N)nc12 (single isomer, unassigned) [Example 20] | – | 36 nM | 140 nM | 130 nM | – | 60 nM |
| CC[C@H]1CN(C(c2ccc(OC(F)(F)F)cc2)c2cc(C3CC3)on2)[C@H](CC)CN1c1nc(=O)n(C)c2ccc(C#N)nc12 (single isomer, unassigned) [Example 42] | 7 nM | 110 nM | 78 nM | 350 nM | 81 nM | – |
| CC[C@H]1CN(C(C)c2ccc(OC(F)(F)F)cc2F)[C@H](CC)CN1c1nc(=O)n(C)c2ccc(C#N)nc12 (single isomer, unassigned) [Example 38] | – | 120 nM | 66 nM | 220 nM | – | 72 nM |
| CCC(c1ccc(OC(F)(F)F)cc1)N1C[C@H](C)N(c2nc(=O)n(C)c3ccc(C#N)nc23)C[C@H]1CC (single isomer, unassigned) [Example 84] | 54 nM | 2090 nM | 3220 nM | 780 nM | – | 670 nM |
| CC[C@H]1CN(C(C)c2ccc3c(c2)OC(F)(F)O3)[C@H](CC)CN1c1nc(=O)n(C)c2ccc(C#N)nc12 (single isomer, unassigned) [Example 14] | – | 36 nM | 350 nM | 900 nM | – | 94 nM |
| CCC(c1ccc(OC(F)(F)F)cc1F)N1C[C@H](C)N(c2nc(=O)n(C)c3ccc(C#N)nc23)C[C@H]1CC (single isomer, unassigned) [Example 85] | 66 nM | 91 nM | 210 nM | 66 nM | – | 22 nM |
| CC[C@H]1CN(C(C)c2ccc(C(C)(C)C#N)cc2)[C@H](CC)CN1c1nc(=O)n(C)c2ccc(C#N)nc12 (stereo partly drawn) [Example 196, 4-((2S,5R)-4-(1-(4-(2-cyanopropan-2-yl)phenyl)ethyl)-2,5-diethylpiperazin-1-yl)-1-methyl-2-oxo-1,2-dihydropyrido[3,2-d]pyrimidine-6-carbonitrile] | – | 12 nM | 120 nM | 49 nM | – | 31 nM |
| CCC(c1ccc(OC(F)(F)F)cc1F)N1C[C@H](CC)N(c2nc(=O)n(C)c3ccc(C#N)nc23)C[C@H]1CC (single isomer, unassigned) [Example 12] | – | 600 nM | 410 nM | 600 nM | 4150 nM | – |
| CC[C@H]1CN(C(c2ccc(F)cc2)c2ccc(C(F)(F)F)cn2)[C@H](CC)CN1c1nc(=O)n(C)c2ccc(C#N)nc12 (single isomer, unassigned) [Example 2] | – | 47 nM | 32 nM | 150 nM | – | 76 nM |
| COC[C@@H]1CN(c2nc(=O)n(C)c3ccc(C#N)nc23)[C@@H](C)CN1C(C)c1ccc(OC(F)(F)F)cc1 (single isomer, unassigned) [Example 177] | – | 770 nM | 610 nM | 520 nM | – | 1710 nM |
| CC[C@H]1CN(C(c2ccc(F)cc2)c2ccc(C(F)(F)F)cn2)[C@H](CC)CN1c1nc(=O)n(C)c2ccc(C#N)nc12 (single isomer, unassigned) [Example 1] | – | 36 nM | 16 nM | 1040 nM | – | 27 nM |

Continued, in another order:

| IC50 (human DGKα [1]) | IC50 (human DGKζ) | IC50 (human DGKα [2]) | Compound | IC50 (whole blood (pERK)) | EC50 ([3]; Homo sapiens) | EC50 [3] |
| --- | --- | --- | --- | --- | --- | --- |
| 4 nM | 120 nM | 130 nM | CC[C@@H]1CN(c2nc(=O)n(C)c3ccc(C#N)nc23)[C@@H](C)CN1C(c1ccc(OC(F)(F)F)cc1)c1cc(C2CC2)on1 (stereo partly drawn) [Example 99, 4-((2S,5R)-4-((5-cyclopropylisoxazol-3-yl)(4-(trifluoromethoxy)phenyl)methyl)-5-ethyl-2-methylpiperazin-1-yl)-1-methyl-2-oxo-1,2-dihydropyrido[3,2-d]pyrimidine-6-carbonitrile] | 140 nM | 120 nM | – |
| 210 nM | 45 nM | 630 nM | CC[C@@H]1CN(c2nc(=O)n(C)c3ccc(C#N)nc23)[C@@H](C)CN1C(c1ccc(F)cc1)c1ccc(C(F)(F)F)nc1 (single isomer, unassigned) [Example 97] | 380 nM | 99 nM | – |
| 10 nM | 46 nM | 47 nM | CC[C@@H]1CN(c2nc(=O)n(C)c3ccc(C#N)nc23)[C@@H](C)CN1C(c1ccc(F)cc1)c1nc(C2CC2)no1 (stereo partly drawn) [Example 113, 4-((2S,5R)-4-((3-cyclopropyl-1,2,4-oxadiazol-5-yl)(4-fluorophenyl)methyl)-5-ethyl-2-methylpiperazin-1-yl)-1-methyl-2-oxo-1,2-dihydropyrido[3,2-d]pyrimidine-6-carbonitrile] | 170 nM | – | 57 nM |
| 60 nM | 110 nM | 55 nM | CCC(c1ccc(C(F)(F)F)cc1)N1C[C@H](C)N(c2nc(=O)n(C)c3ccc(C#N)nc23)C[C@H]1CC (single isomer, unassigned) [Example 89] | 260 nM | 35 nM | – |
| 26 nM | 55 nM | 310 nM | CC[C@@H]1CN(c2nc(=O)n(C)c3ccc(C#N)nc23)[C@@H](C)CN1C(c1ccc(F)cc1)c1ccc(C(F)(F)F)nc1 (single isomer, unassigned) [Example 98] | 140 nM | – | 88 nM |
| – | 140 nM | 29 nM | CC[C@@H]1CN(c2nc(=O)n(C)c3ccc(C#N)nc23)[C@@H](C)CN1C(c1ccc(F)cc1)c1ccon1 (single isomer, unassigned) [Example 73] | 80 nM | – | 22 nM |
| – | 2 nM | 2 nM | CC[C@H]1CN(C(C)c2ccc(C(F)(F)F)cc2)[C@H](C)CN1c1nc(=O)n(C)c2ccc(C#N)nc12 (stereo partly drawn) [Example 117, 4-((2S,5R)-2-ethyl-5-methyl-4-(1-(4-(trifluoromethyl)phenyl)ethyl)piperazin-1-yl)-1-methyl-2-oxo-1,2-dihydropyrido[3,2-d]pyrimidine-6-carbonitrile] | 780 nM | – | 160 nM |
| – | 230 nM | 52 nM | CC(c1ccc(OC(F)(F)F)cc1F)N1C[C@H](C)N(c2nc(=O)n(C)c3ccc(C#N)nc23)C[C@H]1C (single isomer, unassigned) [Example 142] | 100 nM | 3650 nM | – |
| – | 2470 nM | 160 nM | CC[C@H]1CN(C(c2ccc(F)cc2)c2ccc(C(F)(F)F)cn2)[C@H](C)CN1c1nc(=O)n(C)c2ccc(C#N)nc12 (stereo partly drawn) [Example 115, 4-((2S,5R)-2-ethyl-4-((4-fluorophenyl)(5-(trifluoromethyl)pyridin-2-yl)methyl)-5-methylpiperazin-1-yl)-1-methyl-2-oxo-1,2-dihydropyrido[3,2-d]pyrimidine-6-carbonitrile] | 520 nM | – | 230 nM |
| – | 1890 nM | 1130 nM | CC(c1ccc(F)cc1F)N1C[C@H](C)N(c2nc(=O)n(C)c3ccc(C#N)nc23)C[C@H]1C (single isomer, unassigned) [Example 145] | 750 nM | 20000 nM | – |
| – | 2690 nM | 83 nM | CC(c1ccc(OC(F)(F)F)cc1)N1C[C@H](C)N(c2nc(=O)n(C)c3ccc(C#N)nc23)C[C@H]1CO (single isomer, unassigned) [Example 183] | 270 nM | – | 2330 nM |
| – | 1180 nM | 4560 nM | CC(c1ccc(F)c(F)c1)N1C[C@H](C)N(c2nc(=O)n(C)c3ccc(C#N)nc23)C[C@H]1C (single isomer, unassigned) [Example 149] | 1950 nM | – | 8060 nM |
| – | 190 nM | 34 nM | C[C@@H]1CN(c2nc(=O)n(C)c3ccc(C#N)nc23)[C@@H](C)CN1C(c1ccc(F)cc1)c1nc(C(C)(C)C)no1 (single isomer, unassigned) [Example 109] | 48 nM | – | 110 nM |
| – | 27 nM | 37 nM | CC[C@@H]1CN(c2nc(=O)n(C)c3ccc(C#N)nc23)[C@@H](C)CN1C(c1ccc(F)cc1)c1nc(C2CC2)cs1 (single isomer, unassigned) [Example 51] | 9 nM | 6 nM | – |
| – | 44 nM | 47 nM | CC(c1ccc(Cl)cc1F)N1C[C@H](C)N(c2nc(=O)n(C)c3ccc(C#N)nc23)C[C@H]1C (single isomer, unassigned) [Example 146] | 250 nM | 710 nM | – |
